# Laboratory results: patent US8883826B2, “Alkynyl derivatives as modulators of metabotropic glutamate receptors” (Addex Pharma SA, priority 2004, dated 2014)
# Target: T1, mGluR5 (Rattus norvegicus, UniProt P31424)
# T1 construct: tissue Charles River Laboratories; host or cells: rat brain cortex membranes (Sprague-Dawley)
# Test: mGluR5 binding assay ([3H]-MPEP radioligand competition)
# Conditions: competition with 3 nM [3H]-MPEP, rat brain cortical membranes, 1 h at 4 °C; mean of at least three independent experiments in duplicate
# From the text: Activity of compounds of the invention was examined following a radioligand binding technique using whole rat brain and tritiated 2-methyl-6-(phenylethynyl)-pyridine ([^3H]-MPEP) as a ligand following similar methods than those described in F. Gasparini et al. Bioorg. Med. Chem. Lett. 2002, 12, 407-409 and in J. F. Anderson et al. J. Pharmacol. Exp. Ther. 2002, 303, 3, 1044-1051.
# Cortices were dissected out from brains of 200-300 g Sprague-Dawley rats (Charles River Laboratories, L'Arbresle, France). Tissues were homogenized in 10 volumes (vol/wt) of ice-cold 50 mM Hepes-NaOH (pH 7.4) using a Polytron disrupter (Kinematica AG, Luzern, Switzerland) and centrifuged for 30 min at 40,000 g. (4° C.). The supernatant was discarded and the pellet washed twice by resuspension in 10 volumes 50 mM HEPES-NaOH. Membranes were then collected by centrifugation and washed before final resuspension in 10 volumes of 20 mM HEPES-NaOH, pH 7.4. Protein concentration was determined by the Bradford method (Bio-Rad protein assay, Reinach, Switzerland) with bovine serum albumin as standard.
# [^3H]-MPEP Binding Experiments:
# Membranes were thawed and resuspended in binding buffer containing 20 mM HEPES-NaOH, 3 mM MgCl2, 3 mM CaCl2, 100 mM NaCl, pH 7.4. Competition studies were carried out by incubating for 1 h at 4° C.: 3 nM [^3H]-MPEP (39 Ci/mmol, Tocris, Cookson Ltd, Bristol, U.K.), 50 μg membrane and a concentration range of 0.003 nM-30 μM of compounds, for a total reaction volume of 300 μl. The non-specific binding was defined using 30 μM MPEP. Reaction was terminated by rapid filtration over glass-fiber filter plates (Unifilter 96-well GF/B filter plates, Perkin-Elmer, Schwerzenbach, Switzerland) using 4×400 μl ice cold buffer using cell harvester (Filtermate, Perkin-Elmer, Downers Grove, USA). Radioactivity was determined by liquid scintillation spectrometry using a 96-well plate reader (TopCount, Perkin-Elmer, Downers Grove, USA).
# The inhibition curves were generated using the Prism GraphPad program (Graph Pad Software Inc, San Diego, USA). IC50 determinations were made from data obtained from 8 point-concentration response curves using a non linear regression analysis.
# The table below represents the mean of IC50 obtained from at least three independent experiments of selected molecules performed in duplicate.
# T1 sequence (P31424 21-1203): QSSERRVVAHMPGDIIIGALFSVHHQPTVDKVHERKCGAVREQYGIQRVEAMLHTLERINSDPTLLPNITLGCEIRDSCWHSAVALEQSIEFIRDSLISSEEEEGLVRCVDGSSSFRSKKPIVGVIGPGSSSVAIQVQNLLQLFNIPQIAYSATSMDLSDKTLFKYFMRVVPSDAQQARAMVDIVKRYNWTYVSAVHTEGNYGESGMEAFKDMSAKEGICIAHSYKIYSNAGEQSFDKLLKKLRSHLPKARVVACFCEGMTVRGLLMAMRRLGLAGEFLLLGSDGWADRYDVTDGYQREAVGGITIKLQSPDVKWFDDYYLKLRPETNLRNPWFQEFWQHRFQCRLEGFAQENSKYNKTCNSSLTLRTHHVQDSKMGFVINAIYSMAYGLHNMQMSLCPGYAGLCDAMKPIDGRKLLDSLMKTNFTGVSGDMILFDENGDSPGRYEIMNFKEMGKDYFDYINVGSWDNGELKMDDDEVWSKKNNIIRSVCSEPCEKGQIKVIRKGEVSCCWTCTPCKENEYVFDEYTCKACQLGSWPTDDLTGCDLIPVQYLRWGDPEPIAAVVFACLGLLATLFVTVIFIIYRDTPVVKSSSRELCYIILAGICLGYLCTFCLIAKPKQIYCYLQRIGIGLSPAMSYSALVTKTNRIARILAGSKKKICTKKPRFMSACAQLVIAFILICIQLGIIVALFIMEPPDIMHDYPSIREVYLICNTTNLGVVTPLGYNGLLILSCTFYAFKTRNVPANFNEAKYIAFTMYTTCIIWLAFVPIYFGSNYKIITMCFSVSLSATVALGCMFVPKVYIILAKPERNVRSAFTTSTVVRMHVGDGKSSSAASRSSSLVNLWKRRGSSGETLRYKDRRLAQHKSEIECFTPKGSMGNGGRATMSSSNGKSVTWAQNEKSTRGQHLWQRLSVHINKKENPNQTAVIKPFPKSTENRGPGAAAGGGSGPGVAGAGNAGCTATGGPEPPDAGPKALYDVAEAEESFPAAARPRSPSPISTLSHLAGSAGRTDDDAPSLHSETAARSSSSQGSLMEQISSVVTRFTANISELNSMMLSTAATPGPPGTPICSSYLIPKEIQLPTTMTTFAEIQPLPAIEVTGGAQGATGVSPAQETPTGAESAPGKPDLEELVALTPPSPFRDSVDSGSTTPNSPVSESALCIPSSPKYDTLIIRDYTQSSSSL
row,Compound,IC50 [µM]
1,2-(4-(3-Methyl-4-phenyl-1H-pyrazol-1-yl)but-1-ynyl)pyridine and 2-(4-(5-methyl-4-phenyl-1H-pyrazol-1-yl)but-1-ynyl)pyridine [Example 174],< 10
2,"Cc1nc(C#CCCc2ccccc2)cs1 [Example 1, 2-Methyl-(4-(4-phenyl)but-1-ynyl)thiazole]",< 0.5
3,"CCc1ccccc1-c1noc(CCC#Cc2ccccn2)n1 [Example 2, 2-(4-(3-(2-Ethylphenyl)-1,2,4-oxadiazol-5-yl)but-1-ynyl)pyridine]",< 10
4,"O=C1c2ccccc2C(=O)N1CCC#Cc1ccccn1 [Example 3, 2-(4-(Pyridin-2-yl)but-3-ynyl)isoindoline-1,3-dione]",< 10
5,"O=c1c2ccccc2cnn1CCC#Cc1ccccn1 [Example 4, 2-(4-(Pyridin-2-yl)but-3-ynyl)phthalazin-1(2H)-one]",< 10
6,"C(#Cc1ccc2ccccc2n1)CCc1ccccc1 [Example 5, 2-(4-Phenylbut-1-ynyl)quinoline]",< 10
7,"C(#Cc1nc2ccccc2o1)CCc1ccccc1 [Example 7, 2-(4-Phenylbut-1-ynyl)benzo[d]oxazole]",< 0.5
8,"Fc1ccc(-c2noc(CCC#Cc3ccccn3)n2)cc1 [Example 9, 2-(4-(3-(4-Fluorophenyl)-1,2,4-oxadiazol-5-yl)but-1-ynyl)pyridine]",< 10
9,C(#Cc1ccccn1)CCc1nc(-c2ccccc2)no1 [Example 10],< 10
10,"CN(C(=O)CCC#Cc1ccccn1)c1ccc(F)cc1 [Example 13, N-(4-Fluorophenyl)-N-methyl-5-(pyridin-2-yl)pent-4-ynamide]",< 0.5
11,"C(#Cc1ccccn1)CCc1csc(-c2ccccc2)n1 [Example 14, 2-(4-(2-Phenylthiazol-4-yl)but-1-ynyl)pyridine]",< 10
12,Cc1ccccc1-c1noc(CCC#Cc2ccccn2)n1 [Example 15],< 0.5
13,"C(#Cc1ccccn1)CCc1nc(Cc2ccccc2)no1 [Example 16, 2-(4-(3-Benzyl-1,2,4-oxadiazol-5-yl)but-1-ynyl)pyridine]",< 10
14,"Fc1ccccc1Cc1noc(CCC#Cc2ccccn2)n1 [Example 17, 2-(4-(3-(2-Fluorobenzyl)-1,2,4-oxadiazol-5-yl)but-1-ynyl)pyridine]",< 10
15,"Cc1ccccc1Cc1noc(CCC#Cc2ccccn2)n1 [Example 18, 2-(4-(3-(2-Methylbenzyl)-1,2,4-oxadiazol-5-yl)but-1-ynyl)pyridine]",< 10
16,"Fc1ccc(Cc2noc(CCC#Cc3ccccn3)n2)cc1 [Example 19, 2-(4-(3-(4-Fluorobenzyl)-1,2,4-oxadiazol-5-yl)but-1-ynyl)pyridine]",< 10
17,"COc1ccc(Cc2noc(CCC#Cc3ccccn3)n2)cc1 [Example 20, 2-(4-(3-(4-Methoxybenzyl)-1,2,4-oxadiazol-5-yl)but-1-ynyl)pyridine]",< 10
18,"CC(C)c1noc(CCC#Cc2ccccn2)n1 [Example 21, 2-(4-(3-Isopropyl-1,2,4-oxadiazol-5-yl)but-1-ynyl)pyridine]",< 10
19,"CCCCc1noc(CCC#Cc2ccccn2)n1 [Example 22, 2-(4-(3-Butyl-1,2,4-oxadiazol-5-yl)but-1-ynyl)pyridine]",< 10
20,"Fc1cccc(Cc2noc(CCC#Cc3ccccn3)n2)c1 [Example 23, 2-(4-(3-(3-Fluorobenzyl)-1,2,4-oxadiazol-5-yl)but-1-ynyl)pyridine]",< 10
21,"COc1cccc(Cc2noc(CCC#Cc3ccccn3)n2)c1 [Example 24, 2-(4-(3-(3-Methoxybenzyl)-1,2,4-oxadiazol-5-yl)but-1-ynyl)pyridine]",< 10
22,"Fc1ccccc1-c1noc(CCC#Cc2ccccn2)n1 [Example 25, 2-(4-(3-(2-Fluorophenyl)-1,2,4-oxadiazol-5-yl)but-1-ynyl)pyridine]",< 0.5
23,"Fc1cccc(-c2noc(CCC#Cc3ccccn3)n2)c1 [Example 26, 2-(4-(3-(3-Fluorophenyl)-1,2,4-oxadiazol-5-yl)but-1-ynyl)pyridine]",< 10
24,"Cc1ccc2oc(CCC#Cc3ccccn3)nc2c1 [Example 28, 5-Methyl-(2-(4-pyridin-2-yl)but-3-ynyl)benzo[d]oxazole]",< 10
25,"Cc1ccc2nc(CCC#Cc3ccccn3)oc2c1 [Example 29, 6-Methyl-(2-(4-pyridin-2-yl)but-3-ynyl)benzo[d]oxazole]",< 10
26,"Cc1cccc2oc(CCC#Cc3ccccn3)nc12 [Example 30, 4-Methyl-(2-(4-pyridin-2-yl)but-3-ynyl)benzo[d]oxazole]",< 10
27,"Cc1nc(C#CCCc2nc3ccccc3o2)cs1 [Example 31, 2-(4-(2-Methylthiazol-4-yl)but-3-ynyl)benzo[d]oxazole]",< 0.05
28,"C(#Cc1ccccn1)CCc1cn2ccccc2n1 [Example 33, 2-(4-(Pyridin-2-yl)but-3-ynyl)-imidazo[1,2-a]pyridine]",< 0.05
29,"COc1ccccc1-c1noc(CCC#Cc2ccccn2)n1 [Example 40, 2-(4-(3-(2-Methoxyphenyl)-1,2,4-oxadiazol-5-yl)but-1-ynyl)pyridine]",< 10
30,"COc1cccc(-c2noc(CCC#Cc3ccccn3)n2)c1 [Example 41, 2-(4-(3-(3-Methoxyphenyl)-1,2,4-oxadiazol-5-yl)but-1-ynyl)pyridine]",< 10

# The remaining lines, values ahead:
row,IC50 [µM],Compound
1,< 10,"COc1ccc(-c2noc(CCC#Cc3ccccn3)n2)cc1 [Example 42, 2-(4-(3-(4-Methoxyphenyl)-1,2,4-oxadiazol-5-yl)but-1-ynyl)pyridine]"
2,< 10,"Cc1cccc(-c2noc(CCC#Cc3ccccn3)n2)c1 [Example 43, 2-(4-(3-m-Tolyl-1,2,4-oxadiazol-5-yl)but-1-ynyl)pyridine]"
3,< 10,"Cc1ccc(-c2noc(CCC#Cc3ccccn3)n2)cc1 [Example 44, 2-(4-(3-p-Tolyl-1,2,4-oxadiazol-5-yl)but-1-ynyl)pyridine]"
4,< 10,"Clc1ccccc1-c1noc(CCC#Cc2ccccn2)n1 [Example 45, 2-(4-(3-(2-Chlorophenyl)-1,2,4-oxadiazol-5-yl)but-1-ynyl)pyridine]"
5,< 10,"Clc1cccc(-c2noc(CCC#Cc3ccccn3)n2)c1 [Example 46, 2-(4-(3-(3-Chlorophenyl)-1,2,4-oxadiazol-5-yl)but-1-ynyl)pyridine]"
6,< 0.5,"Cc1cccc(C)c1-c1noc(CCC#Cc2ccccn2)n1 [Example 48, 2-(4-(3-(2,6-Dimethylphenyl)-1,2,4-oxadiazol-5-yl)but-1-ynyl)pyridine]"
7,< 10,FC(F)(F)c1ccccc1-c1noc(CCC#Cc2ccccn2)n1 [Example 49]
8,< 10,"C(#Cc1ccccn1)CCc1nc(-c2cccc3ccccc23)no1 [Example 50, 2-(4-(3-(Naphthalen-1-yl)-1,2,4-oxadiazol-5-yl)but-1-ynyl)pyridine]"
9,< 10,"Cc1cccc(-c2noc(CCC#Cc3ccccn3)n2)c1C [Example 52, 2-(4-(3-(2,3-Dimethylphenyl)-1,2,4-oxadiazol-5-yl)but-1-ynyl)pyridine]"
10,< 10,"Clc1ccc(Cl)c(-c2noc(CCC#Cc3ccccn3)n2)c1 [Example 53, 2-(4-(3-(2,5-Dichlorophenyl)-1,2,4-oxadiazol-5-yl)but-1-ynyl)pyridine]"
11,< 10,"Cc1ccc(C)c(-c2noc(CCC#Cc3ccccn3)n2)c1 [Example 54, 2-(4-(3-(2,5-Dimethylphenyl)-1,2,4-oxadiazol-5-yl)but-1-ynyl)pyridine]"
12,< 10,"Clc1cccc(Cl)c1-c1noc(CCC#Cc2ccccn2)n1 [Example 55, 2-(4-(3-(2,6-Dichlorophenyl)-1,2,4-oxadiazol-5-yl)but-1-ynyl)pyridine]"
13,< 10,"Clc1cccc(-c2noc(CCC#Cc3ccccn3)n2)c1Cl [Example 56, 2-(4-(3-(2,3-Dichlorophenyl)-1,2,4-oxadiazol-5-yl)but-1-ynyl)pyridine]"
14,< 10,"Cc1cccc(Cl)c1-c1noc(CCC#Cc2ccccn2)n1 [Example 58, 2-(4-(3-(2-Chloro-6-methylphenyl)-1,2,4-oxadiazol-5-yl)but-1-ynyl)pyridine]"
15,< 10,"FC(F)(F)Oc1ccccc1-c1noc(CCC#Cc2ccccn2)n1 [Example 61, 2-(4-(3-(2-(Trifluoromethoxy)phenyl)-1,2,4-oxadiazol-5-yl)but-1-ynyl)pyridine]"
16,< 0.05,"Fc1ccc2nc(CCC#Cc3ccccn3)oc2c1 [Example 62, 6-Fluoro-2-(4-(pyridin-2-yl)but-3-ynyl)benzo[d]oxazole]"
17,< 0.05,"Clc1cccc2nc(CCC#Cc3ccccn3)oc12 [Example 63, 7-Chloro-2-(4-(pyridin-2-yl)but-3-ynyl)benzo[d]oxazole]"
